Measurements from patent US20090124588A1, “Androstane 17-Alpha-Carbonate for Use in the Treatment of Inflammatory and Allergic Conditions” (Glaxo Group Limited, priority 2005, published 2009).

Tests used:
Format in all cases: cell-based
glucocorticoid receptor [1] = molecular target: T1, glucocorticoid receptor (Homo sapiens, UniProt P04150); assay: Transrepression activity of glucocorticoid agonists (NF-κB/ELAM-sPAP reporter in A549 cells, TNF stimulated); conditions: NF-κB responsive ELAM promoter-sPAP reporter, compound 1 hour, TNF 10 ng/ml 16 hours, read-out: pEC50 transrepression (converted)
T1 sequence (P04150 1-777): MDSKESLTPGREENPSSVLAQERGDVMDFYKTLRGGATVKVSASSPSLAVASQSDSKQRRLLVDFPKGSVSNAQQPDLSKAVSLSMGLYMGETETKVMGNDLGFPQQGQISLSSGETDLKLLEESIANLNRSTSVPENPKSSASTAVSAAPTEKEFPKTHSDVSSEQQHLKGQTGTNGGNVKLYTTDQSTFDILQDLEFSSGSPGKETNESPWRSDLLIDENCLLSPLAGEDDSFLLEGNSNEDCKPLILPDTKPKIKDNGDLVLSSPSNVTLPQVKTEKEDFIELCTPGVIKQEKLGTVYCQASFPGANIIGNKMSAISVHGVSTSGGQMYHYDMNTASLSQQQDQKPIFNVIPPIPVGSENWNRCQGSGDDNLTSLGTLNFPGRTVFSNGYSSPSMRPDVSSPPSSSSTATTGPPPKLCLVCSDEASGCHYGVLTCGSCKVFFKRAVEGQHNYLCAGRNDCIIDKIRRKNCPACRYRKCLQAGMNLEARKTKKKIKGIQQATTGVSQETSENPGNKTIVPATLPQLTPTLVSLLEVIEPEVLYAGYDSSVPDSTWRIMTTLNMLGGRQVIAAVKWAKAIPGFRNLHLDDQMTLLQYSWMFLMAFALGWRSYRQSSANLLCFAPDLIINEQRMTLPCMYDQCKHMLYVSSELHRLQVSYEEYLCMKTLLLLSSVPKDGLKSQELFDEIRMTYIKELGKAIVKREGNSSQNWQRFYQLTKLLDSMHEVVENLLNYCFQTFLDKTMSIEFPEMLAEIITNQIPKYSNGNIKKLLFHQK
Experimental: The functional assay based on that described by K. P. Ray et al., Biochem J. (1997), 328, 707-715 provides a measure of transrepressive activity of a glucocorticoid agonist. A549 cells stably transfected with a reporter gene containing the NF-κB responsive elements from the ELAM gene promoter coupled to sPAP (secreted alkaline phosphatase) are treated with test compounds at appropriate doses for 1 hour at 37° C. The cells are then stimulated with tumour necrosis factor (TNF, 10 ng/ml) for 16 hours, at which time the amount of alkaline phosphatase produced is measured by a standard colourimetric assay. Dose response curves were constructed from which EC50 values were estimated.

glucocorticoid receptor [2] = molecular target: T1, glucocorticoid receptor; assay: Transactivation activity of glucocorticoid agonists (MMTV-LTR renilla luciferase reporter in A549 cells); conditions: 6 hour at 37° C., read-out: maximal response relative to Dexamethasone (100%)
Experimental: The functional assay based on that described by R. J. H. Austin et al., Eur Resp J. (2002), 20, 1386-1392 measures the ability of compounds to directly transactivate gene expression. A549 cells stably transfected with a reporter gene containing the glucocorticoid responsive region of the mouse mammary tumour virus long terminal repeat (MMTV-LTR) coupled to renilla luciferase were treated with test compounds at appropriate doses for 6 hour at 37° C. The amount of luciferase activity present within the cells is then determined by measuring the light emitted following incubation with a suitable substrate. Dose response curves were constructed from which EC50 values were estimated and from which maximal responses are calculated relative to Dexamethasone (100%).

Progesterone Receptor = molecular target: T2, Progesterone Receptor (Homo sapiens, UniProt P06401); assay: Progesterone receptor activity (CV-1 cells transduced with PRb-BacMam and MMTV-BacMam); conditions: 24 h, Steady Glo, read-out: pEC50 progesterone receptor (converted)
T2 construct: expressed in transfected cells; host or cells: CV-1 cells transduced with BacMam virus
T2 sequence (P06401 1-933): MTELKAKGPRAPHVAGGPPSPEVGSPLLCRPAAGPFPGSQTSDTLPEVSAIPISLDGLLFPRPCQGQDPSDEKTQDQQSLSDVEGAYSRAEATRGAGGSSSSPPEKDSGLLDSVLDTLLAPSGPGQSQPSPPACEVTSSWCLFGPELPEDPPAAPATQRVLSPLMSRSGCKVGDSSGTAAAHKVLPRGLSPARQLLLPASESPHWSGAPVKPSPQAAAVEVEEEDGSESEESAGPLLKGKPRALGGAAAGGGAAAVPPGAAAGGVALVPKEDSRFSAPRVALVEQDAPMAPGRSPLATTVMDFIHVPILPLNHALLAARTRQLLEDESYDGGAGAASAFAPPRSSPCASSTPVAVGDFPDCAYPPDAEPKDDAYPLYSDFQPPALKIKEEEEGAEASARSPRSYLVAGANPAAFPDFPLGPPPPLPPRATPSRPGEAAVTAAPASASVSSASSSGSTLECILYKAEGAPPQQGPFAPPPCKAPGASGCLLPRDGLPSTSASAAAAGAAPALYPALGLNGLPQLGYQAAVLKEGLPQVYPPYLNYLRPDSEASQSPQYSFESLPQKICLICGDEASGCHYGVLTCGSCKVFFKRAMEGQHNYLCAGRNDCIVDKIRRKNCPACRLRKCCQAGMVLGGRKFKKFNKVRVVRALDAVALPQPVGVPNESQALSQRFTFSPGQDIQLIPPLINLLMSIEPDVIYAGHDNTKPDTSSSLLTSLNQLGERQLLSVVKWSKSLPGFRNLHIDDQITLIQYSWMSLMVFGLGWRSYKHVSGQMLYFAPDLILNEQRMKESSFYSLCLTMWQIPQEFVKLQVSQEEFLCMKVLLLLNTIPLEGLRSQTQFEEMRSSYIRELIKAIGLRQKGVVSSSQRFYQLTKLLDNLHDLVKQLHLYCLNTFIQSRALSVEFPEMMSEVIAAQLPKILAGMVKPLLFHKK
Experimental: A T225 flask of CV-1 cells at a density of 80% confluency was washed with PBS, detached from the flask using 0.25% trypsin and counted using a Sysmex KX-21N. Cells were diluted in DMEM containing 10% Hyclone, 2 mM […] and 1% Pen/Strep at 140 cells/μl and transduced with 10% PRb-BacMam and 10% MMTV-BacMam. […] of suspension cells were dispensed to each well of white Nunc 384-well plates, containing compounds at the required concentration. After 24 h 10 μl of Steady Glo were added to each well of the plates. Plates were incubated in the dark for 10 min before reading them on a Viewlux reader. Dose response curves were constructed from which pEC50 values were estimated.

Row | SMILES | EC50 (glucocorticoid receptor [1]) [nM] | Emax (glucocorticoid receptor [2]) [%] | EC50 (Progesterone Receptor) [nM]
1 | CCC(C)(C)OC(=O)O[C@]1(C(=O)OCC#N)[C@H](C)C[C@H]2[C@@H]3C[C@H](F)C4=CC(=O)C=C[C@]4(C)[C@@]3(F)[C@@H](O)C[C@@]21C [Example 2, Cyanomethyl (6α,11β,16α,17α)-17-({[(1,1-dimethylpropyl)oxy]carbonyl}oxy)-6,9-difluoro-1-hydroxy-16-methyl-3-oxoandrosta-1,4-diene-17-carboxylate] | < 0.1 | < 10 | > 100
2 | C[C@@H]1C[C@H]2[C@@H]3C[C@H](F)C4=CC(=O)C=C[C@]4(C)[C@@]3(F)[C@@H](O)C[C@]2(C)[C@@]1(OC(=O)OC(C)(C)C)C(=O)OCC#N [Example 1, Cyanomethyl (6α,11β,16α,17α)-17-({[(1,1-dimethylethyl)oxy]carbonyl}oxy)-6,9-difluoro-11-hydroxy-16-methyl-3-oxoandrosta-1,4-diene-17-carboxylate] | < 0.1 | < 10 | > 100
